Measurements as given in paper PMC11653243, “Enhancing Phototoxicity in BODIPY‐Perylene Charge Transfer Dyads by Combined Iodination and Mesylation” (Chemistry (Weinheim an Der Bergstrasse, Germany), 2024).
Several values for one entry are separate records, joined by “and”; a condition that tells them apart may be missing. Equal values may be shown once.

Legend:
MCF‐7 cells = assay: Cellular uptake and co-localisation by confocal microscopy; assay type: cell-based; details: ER Tracker 1 µM, 45 min
Experimental: The intracellular uptake of the BODIPY derivatives was assessed in two mammalian cell lines, CHO (non‐cancer) and MCF‐7 (cancer). […] B2P and B2PI were studied following 4 h and 17 h incubation in MCF‐7 cells with 10 μM of each BODIPY derivative. A 17 h incubation was selected to allow for adequate cell uptake of the complex, ensuring sufficient brightness for confocal imaging while minimising cell toxicity.
Across all four compounds uptake of the BODIPYs led to extremely bright and highly punctate staining from within the cells. As all of the BODIPY‐perylene probes emit minimally from aqueous media including cell culture media (Figure S20) the bright emission is attributed to localisation of the complex to non‐aqueous domains, i. e. organelle membranes or to lipid droplets (LDs). To identify which, co‐localisation studies with targeted probes were completed. CHO and MCF‐7 cells were treated with B2P, B2PI, MB2P or MB2PI and co‐stained with specific organelle markers including LD probes; PyLa−C17Cer and BODIPY 493/503, an endoplasmic reticulum stain; ER Tracker Blue‐White and a lysosomal stain; LysoTracker Deep Red. Pyla‐C17Cer was previously published and localises in both the ER and LDs.[41] Cellular uptake of B2PI was recently reported in MCF‐7 cells, though localisation was not explored.[25]
MCF‐7 and CHO cells were treated with B2P, MB2P, B2PI or MB2PI for 17 h and co‐stained with a number of dyes for co‐staining including LysoTracker Deep Red, ER Tracker Blue/White, PyLa−C17Cer, BODIPY 493/503 and H2DCFDA. Cells were imaged in phenol red free media using a Leica DMi8 confocal microscope with a 63x or 100x oil immersion lens and a heated state at 37 °C.
Uptake in Live Cell Monolayers
CHO cells were incubated in 75cm2 cell culture flasks (Corning) with DMEM/F-12 Ham medium (Sigma-Aldrich) with L-glutamine and sodium bicarbonate supplemented with 10% fetal bovine serum (FBS) (Gibco) and 1% penicillin-streptomycin (Sigma-Aldrich). MCF-7 cells were incubated in 25cm2 cell culture flasks with RPMI-1640 medium (Sigma-Aldrich) with L-glutamine and sodium bicarbonate supplemented with 10% fetal bovine serum (FBS, Gibco) and 1% penicillin-streptomycin. Cells were incubated at 37 °C with 5% CO2 and detached from the flask at 90% confluency using a 1X Trypsin-EDTA solution (Sigma-Aldrich). Cells were counted using the EVE automated cell counter (NanoEnTek) and seeded at 1 x 10^5 cells per mL in a 4 or 8 chamber µ-slide (ibidi) for cell imaging and left for 24 h at 37 °C. Cells were rinsed with 1X PBS (Gibco) and stained with B2P or B2PI at 10 µM and MB2P or MB2PI at 30 µM for 17 h. Cells were washed twice with PBS and covered with phenol red free RPMI medium (Gibco) for imaging. […]

[1] = DPBF singlet oxygen (ROS) scavenger assay in methanol; details: 470 nm LED, t=210 seconds relative to t=0, 10 mM DPBF in methanol, absorbance matched
Experimental: Given the impact of the heavy iodine atom on phototoxicity, to confirm if the origin of toxicity is triplet sensitised formation of ^1O2 we carried out ROS scavenger studies with 1,3‐diphenylisobenzofuran (DPBF, Figure 6C). Stock solutions of BODIPY‐perylene were prepared under absorbance matched conditions and a BODIPY‐DPBF solution prepared at concentration of 10 mM DPBF in methanol. The BODIPY‐DPBF solution was irradiated (470 nm) from 0–210 seconds and the absorption spectra recorded every 30 seconds. In the presence of ^1O2, DPBF forms an unstable peroxide, endoperoxide 1, that readily decomposes to colourless 1,2‐dibenzoylbenzene (DBB).[51] This change is detected spectrophotometrically with depletion of DPBF absorbance at 410 nm. The DPBF assay results are represented in Figure 6C as % decrease in absorbance at 410 nm. The values are determined at t=210 seconds relative to the absorbance values recorded prior to irradiation at t=0. […] As expected, the most phototoxic compound, MB2PI, generates the most ^1O2 upon irradiation with a 470 nm LED with a 52 % decrease in DPBF absorbance at 410 nm. […] DPBF is known to be sensitive to light, therefore, to mitigate photodegradation of affecting the assay results, exposure was limited to 3.5 minutes where DPBF absorbance decrease at 410 nm is <10 % at this time point. […] Due to the photo‐vulnerability of DPBF under visible irradiation, this study is limited by a short experimental window and ignores any ROS generation over longer irradiation periods. […]
Figure 6 ROS dye H2DCFDA (A) prior to irradiation and (B) after 5 minutes of continuous irradiation confirming ROS generation. […] A graph of ROS scavenger DPBF response to irradiation of the BODIPY‐perylene compounds is shown in (C) where a decrease in absorbance at 410 nm confirms ^1O2 generation upon photoactivation. Studies were performed with the BODIPY‐perylene compounds under absorbance matched conditions. Values shown indicate the % decrease in absorbance values recorded at t=0 and t=210 seconds and is reported as mean±standard deviation. […]
To assess singlet oxygen (1O2) production and determine if the phototoxicity of our BODIPY complexes was caused by the generation of reactive oxygen species (ROS), a 1O2 scavenger study was completed using 1,3-diphenylisobenzofuran (DPBF). A 20 mM solution of DPBF in methanol was prepared, and stocks of the BODIPY-perylene compounds in DMSO were prepared under absorbance matched concentrations, starting at a 30 µM concentration of each. Test solutions of 1:1, DPBF: BODIPY in methanol (final concentration of 10 mM DPBF) were added to a clear 96 well plate (Nunc) and absorbance was measured using a BMG LABTECH CLARIOstar plate reader. […]

| SMILES | Pearson Coefficient (r) with ER Tracker Blue/White (MCF‐7 cells) | decrease in DPBF absorbance at 410 nm [1] |
| --- | --- | --- |
| CC1=C(I)C(C)=[N+]2C1=C(c1ccccc1)c1c(C)c(-c3ccc4c5cccc6cccc(c7cccc3c74)c65)c(C)n1[B-]2(F)F [B2PI] | 0.19 ± 0.05 | 31% |
| CC1=CC(C)=[N+]2C1=C(c1ccccc1)c1c(C)c(-c3ccc4c5cccc6cccc(c7cccc3c74)c65)c(C)n1[B-]2(F)F [B2P] | 0.14 ± 0.07 | 8% |
| CC1=C(c2ccc3c4cccc5cccc(c6cccc2c63)c54)C(C)=[N+]2C1=C(c1c(C)cc(C)cc1C)c1c(C)c(I)c(C)n1[B-]2(F)F [MB2PI] | 0.53 ± 0.04 and ~0.5 | 52% |
| CC1=C(c2ccc3c4cccc5cccc(c6cccc2c63)c54)C(C)=[N+]2C1=C(c1c(C)cc(C)cc1C)c1c(C)cc(C)n1[B-]2(F)F [MB2P] | 0.54 ± 0.04 and ~0.5 | 6% |
